Results: patent US20040242498A1, “CXCR3 antagonists” (priority 2003, published 2004)
Entries after “also recorded” stand apart in the source; their conditions may differ.

Tests used:
[1] = Metabolites of compound 101 with human liver microsomal fractions; format: in vitro ADME; conditions: formed from compound 101 (10 μM), microsomal protein 1 mg/mL, NADPH, 37° C., 105 min, LCMS
Experimental: (§1) Compound 101 was contacted with microsomal fractions from Sprague Dawley rat, dog (beagle), rhesus monkey and human liver to detect and identify resulting metabolites. In particular, Compound 101 in PBS (10 μM) was incubated in a mixture of microsomal protein (1 mg/mL), EDTA (1.0 mM) and NADPH (5 mM) at 37° C. for a total of 105 min. The reaction was stopped by the addition of acetonitrile containing 0.2% formic acid (400 μL). Samples were centrifuged and the supernatant was subjected to LCMS analysis.
(§2) Compound 103, the pyridyl-N-oxide product of compound 101, was detected following contact with the microsomal fractions from all species. Compound 105, the deethylation product of compound 101, was also detected following contact with the microsomal fractions from all species. […] With human microsomal fractions, an amount of compound 107, the deethylation and pyridyl-N-oxide product of compound 101, was also detected.

[2] = Metabolites of compound 101 with rhesus monkey liver microsomal fractions and hepatocytes; format: in vitro ADME; conditions: formed from compound 101; liver microsomal fractions (10 μM, 105 min) or cryopreserved hepatocytes
Experimental: as §1, §2
(§3) Compound 101 was also incubated with intact dog and monkey liver cells (cryopreserved hepatocytes). Following incubation, the formation of compound 109, the glucuronide adduct of compound 105, was detected.

[3] = Metabolites of compound 101 with dog liver microsomal fractions and hepatocytes; format: in vitro ADME, dog (beagle); conditions: formed from compound 101; liver microsomal fractions (10 μM, 105 min) or cryopreserved hepatocytes
Experimental: as §1, §2, §3

[4] = Metabolites of compound 101 with rat liver microsomal fractions; format: in vitro ADME, Sprague Dawley rat; conditions: formed from compound 101 (10 μM), 105 min
Experimental: as §1, §2

[5] = Excretion of compound 101 and metabolites in urine and bile of bile duct cannulated rats; format: in vivo, Sprague Dawley rat; conditions: bile duct cannulated male rats
Experimental: In addition, compound 101 was administered intravenously or orally to bile duct cannulated male Sprague Dawley rats. Urine and bile samples were collected over a period of 24 hours and analyzed by liquid chromatography/mass spectrometry. Compound 101 was detected in a small amount (<1% of the administered dose) in urine and in bile. In urine, compound 103, the pyridyl-N-oxide of compound 101, was detected. Five metabolites, compounds 103, 105, 107, 109 and 111, were all detected in bile excretions; compound 111 was detected in a trace amount in bile. A proposed metabolic pathway for compound 101 is provided at FIG. 3.
Overall, N-oxidation and O-deethylation occurred to similar extents. The O-deethyl metabolite was detected mainly as a glucuronide conjugate, compound 109. […] Only trace amounts of the glucuronide of the N-oxidized O-deethyl metabolite, compound […], were detected. The detected metabolites, and the relative amounts thereof, in urine and bile agree with the metabolites detected with rat liver microsomal fractions and rat hepatocytes in vitro as discussed above.

[6] = system: any cytochrome p450 isoform, including 3A4; assay: Inhibition or induction of cytochrome p450 isoforms by compound 101; format: in vitro ADME, human
[7] = after compound 101 intravenously or orally, 24 hours, LC/MS
[8] = compound 101 intravenously or orally, 24 hours collection

| SMILES | Metabolic Forms of Compound 101: Human [1] | Metabolic Forms of Compound 101: Monkey [2] | Metabolic Forms of Compound 101: Dog [3] | Metabolic Forms of Compound 101: Rat (in vitro) [4] | Detection in bile [5, 7] | Metabolic Forms of Compound 101: Rat (in vivo), excreta in which detected [5, 8] | Detection in urine [5, 7] | Amount detected in urine and in bile, of the administered dose (Rat in vivo) [5, 8] | Inhibition or induction of cytochrome p450 isoforms [6] |
| --- | --- | --- | --- | --- | --- | --- | --- | --- | --- |
| C[C@H](c1nc2ncccc2c(=O)n1-c1ccc(O)cc1)N(Cc1cccnc1)C(=O)Cc1ccc(OC(F)(F)F)cc1 [Compound 105] | detected; also recorded: minor | detected; also recorded: minor | detected; also recorded: minor | approximately equal amounts; also recorded: major | detected | bile |  |  |  |
| CCOc1ccc(-n2c([C@@H](C)N(Cc3ccc[n+]([O-])c3)C(=O)Cc3ccc(OC(F)(F)F)cc3)nc3ncccc3c2=O)cc1 [Compound 103] | more compound 103 than compound 105; also recorded: major | more compound 103 than compound 105; also recorded: major | more compound 103 than compound 105; also recorded: major | approximately equal amounts; also recorded: major | detected | urine & bile | detected |  |  |
| C[C@H](c1nc2ncccc2c(=O)n1-c1ccc(O)cc1)N(Cc1ccc[n+]([O-])c1)C(=O)Cc1ccc(OC(F)(F)F)cc1 [Compound 107] | detected; also recorded: minor | minor |  |  | detected; also recorded: significant amounts | bile |  |  |  |
| C[C@H](c1nc2ncccc2c(=O)n1-c1ccc(OC2OC(C(=O)O)C(O)C(O)C2O)cc1)N(Cc1cccnc1)C(=O)Cc1ccc(OC(F)(F)F)cc1 (stereo partly shown) [Compound 109] |  | detected; also recorded: minor | detected; also recorded: minor |  | detected; also recorded: trace amounts | bile |  |  |  |
| CCOc1ccc(-n2c([C@@H](C)N(Cc3cccnc3)C(=O)Cc3ccc(OC(F)(F)F)cc3)nc3ncccc3c2=O)cc1 [Compound 101] |  |  |  |  |  |  |  | <1% | little or no inhibition or induction |
| C[C@H](c1nc2ncccc2c(=O)n1-c1ccc(OC2OC(C(=O)O)C(O)C(O)C2O)cc1)N(Cc1ccc[n+]([O-])c1)C(=O)Cc1ccc(OC(F)(F)F)cc1 (stereo partly shown) [Compound 111] |  |  |  |  | trace amount | bile (traces) |  |  |  |
